Columns and labels:
Assay type in all cases: cell-based
Candida albicans = experiment: in vitro antifungal activity, minimum inhibitory concentration (MIC), Candida albicans
Excerpt: (§1) The antifungal activity of two exemplary phosphocholines prepared using the method of the invention, i.e., (1) synthetic 1,22-Bis-[2-(trimethylammonium)ethylphosphatyl] docosane obtained using the stepwise synthetic route and, (2) synthetic 1,22-Bis-[2-(trimethylammonium)ethyl-phosphatyl] docosane obtained using the one-pot one step route, as well as the antifungal activity of (3) the natural product isolated from Irbachia alata identified as 1,22-Bis-[2-(trimethylammonium)ethyl-phosphatyl] docosane (see International Application filed Oct. 8, 1993 was determined in vitro using three fungal cultures--Candida albicans (CA), Cryptococcus neoformans (CN), and Aspergillus fumigatus (CF). The method used to determine in vitro antifungal activity is described in McGinnis, M. R., Laboratory Handbook of Medical Mycology, Academic Press, New York, London, p 412-416 (1980); and Drouget, E.; Dupont, B.; Improvisi, L.; Vivian, M. A.; and Tortorano, A. M.; "Disc agar difusion and microplate automatized techniques for in vitro evaluation of antifungal agents on yeast and sporulated pathogenic fungi" in In Vitro and In Vivo Evaluation of Antifungal Agents, Eds. Iwata, K. and Vanden Bossche, H., Elsevier Science Publishers, New York, Oxford, p 303 (1986). The minimum inhibitory concentration (MIC) for each is summarized in Table I. Partial inhibition of the fungus of between 25% to 75% was also measured. A description of the partial inhibition measurement can be found in R. L. Stiller, et al, The Journal of Infectious Diseases, 147, No 6 (1983).

Aspergillus fumigatus [1] = experiment: in vitro antifungal activity, minimum inhibitory concentration (MIC), Aspergillus fumigatus
Excerpt: as §1

Cryptococcus neoformans = experiment: in vitro antifungal activity, minimum inhibitory concentration (MIC), Cryptococcus neoformans
Excerpt: as §1

Aspergillus fumigatus [2] = experiment: partial inhibition of the fungus, Aspergillus fumigatus; details: in vitro, partial inhibition of between 25% to 75%
Excerpt: as §1, with “The minimum inhibitory concentration (MIC) for each is summarized in Table I. Partial inhibition of the fungus of between 25% to 75% was also measured. A description of the partial inhibition measurement can be found in R. L. Stiller, et al, The Journal of Infectious Diseases, 147, No 6 (1983).” left out

SMILES: C[N+](C)(C)CCOP(=O)([O-])OCCCCCCCCCCCCCCCCCCCCCCOP(=O)([O-])OCC[N+](C)(C)C [1,22-Bis [2-(trimethylammonium)ethylphosphatyl] docosane]
- MIC (Candida albicans): 1.25 µg/mL
- MIC (Aspergillus fumigatus [1]): 0.08 µg/mL

SMILES: C[N+](C)(C)CCOP(=O)([O-])OCCCCCCCCCCCCCCCCCCCCCCOP(=O)([O-])OCC[N+](C)(C)C [Isolated Natural Product 1,22-Bis[2[(trimethyl ammonium)ethy] [1,22-Bis-[2-(trimethylammonium)ethyl-phosphatyl] docosane]
- MIC CA (Candida albicans): 1.25 µg/mL
- MIC CN (Cryptococcus neoformans): < 0.04 µg/mL
- MIC AF (Aspergillus fumigatus [1]): 0.08 µg/mL

SMILES: C[N+](C)(C)CCOP(=O)([O-])OCCCCCCCCCCCCCCCCCCCCCCOP(=O)([O-])OCC[N+](C)(C)C [Synthetic 1,22-Bis[2-(trimethyl-ammonium)ethyl phosphatyl] d] [1,22-Bis [2-(trimethylammonium)ethylphosphatyl] docosane]
- MIC CA (Candida albicans): 0.8 µg/mL
- MIC CN (Cryptococcus neoformans): < 0.1 µg/mL
- MIC AF (Aspergillus fumigatus [1]): < 0.1 µg/mL
- Partial inhibition AF (Aspergillus fumigatus [2]): 0.1 µg/mL

SMILES: C[N+](C)(C)CCOP(=O)([O-])OCCCCCCCCCCCCCCCCCCCCCCOP(=O)([O-])OCC[N+](C)(C)C [Synthetic 1,22-Bis[2-trimethyl-ammonium)ethyl phosphatyl] do] [1,22-Bis [2-(trimethylammonium)ethylphosphatyl] docosane]
- MIC CN (Cryptococcus neoformans): 0.08 µg/mL
- Partial inhibition AF (Aspergillus fumigatus [2]): 0.02 µg/mL
